Results taken from PubChem BioAssay (NCI).
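Grown in 96-well plates, cells were treated for 48 hours with each compound at five concentrations. Insufficient inhibition: endpoint recorded as highest concentration tested. At the GI50, growth is halved. TGI: total growth inhibition.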

Tests used:
Experiment in all cases: inhibition of tumour cell growth, NCI panel, 48 h
NCI-H460 lung = test system: NCI-H460 lung
HT29 colon = test system: HT29 colon
CAKI-1 renal = test system: CAKI-1 renal
OVCAR-4 ovarian = test system: OVCAR-4 ovarian
ACHN renal = test system: ACHN renal
EKVX NSCLC = test system: EKVX NSCLC
DU-145 prostate = test system: DU-145 prostate
SNB-75 CNS = test system: SNB-75 CNS
HS 578T breast = test system: HS 578T breast
TK-10 renal = test system: TK-10 renal
UACC-257 melanoma = test system: UACC-257 melanoma
PC-3 prostate = test system: PC-3 prostate
MDA-MB-231 breast = test system: MDA-MB-231 breast
SF-539 CNS = test system: SF-539 CNS
K-562 leukemia = test system: K-562 leukemia
KM12 colon = test system: KM12 colon
COLO 205 colon = test system: COLO 205 colon
BT-549 breast = test system: BT-549 breast
CCRF-CEM leukemia = test system: CCRF-CEM leukemia
NCI-H522 lung = test system: NCI-H522 lung
HCC-2998 colon = test system: HCC-2998 colon
HOP-62 NSCLC = test system: HOP-62 NSCLC
HL-60(TB) leukemia = test system: HL-60(TB) leukemia
UACC-62 melanoma = test system: UACC-62 melanoma
OVCAR-3 ovarian = test system: OVCAR-3 ovarian
SN12C renal = test system: SN12C renal
NCI-H23 lung = test system: NCI-H23 lung
T-47D breast = test system: T-47D breast
OVCAR-8 ovarian = test system: OVCAR-8 ovarian
SW-620 colon = test system: SW-620 colon
RPMI-8226 leukemia = test system: RPMI-8226 leukemia
A549 NSCLC = test system: A549 NSCLC
SNB-19 CNS = test system: SNB-19 CNS
SK-MEL-28 melanoma = test system: SK-MEL-28 melanoma
NCI-H226 lung = test system: NCI-H226 lung
OVCAR-5 ovarian = test system: OVCAR-5 ovarian
LOX IMVI melanoma = test system: LOX IMVI melanoma
HCT-116 colon = test system: HCT-116 colon
HOP-92 NSCLC = test system: HOP-92 NSCLC
MCF7 breast = test system: MCF7 breast
SK-OV-3 ovarian = test system: SK-OV-3 ovarian
SK-MEL-2 melanoma = test system: SK-MEL-2 melanoma
NCI/ADR-RES ovarian = test system: NCI/ADR-RES ovarian
MOLT-4 leukemia = test system: MOLT-4 leukemia
SK-MEL-5 melanoma = test system: SK-MEL-5 melanoma
UO-31 renal = test system: UO-31 renal
MALME-3M melanoma = test system: MALME-3M melanoma
786-0 renal = test system: 786-0 renal
RXF 393 renal = test system: RXF 393 renal
SR leukemia = test system: SR leukemia
MDA-MB-435 = test system: MDA-MB-435
SF-295 CNS = test system: SF-295 CNS
U251 CNS = test system: U251 CNS
M14 melanoma = test system: M14 melanoma
A498 renal = test system: A498 renal
IGROV1 ovarian = test system: IGROV1 ovarian
HCT-15 colon = test system: HCT-15 colon
SF-268 CNS = test system: SF-268 CNS

With `C=C(C)[C@@H]1CC[C@]2(CN)CC[C@]3(C)[C@H](CC[C@@H]4[C@@]5(C)CCC(N)[C@@](C)(CO)[C@@H]5CC[C@]43C)[C@@H]12` (stereo partly specified) the GI50 (NCI-H460 lung) was 1870 nM, the TGI (NCI-H460 lung) was 3.51 µM and the GI50 (HT29 colon) was 1590 nM. It also gave a TGI (HT29 colon) of 3.12 µM, a GI50 (CAKI-1 renal) of 1760 nM and a TGI (CAKI-1 renal) of 3.2 µM. For the same compound, the GI50 (OVCAR-4 ovarian) was 1640 nM, the TGI (OVCAR-4 ovarian) was 3.26 µM and the GI50 (ACHN renal) was 1860 nM. It also gave a TGI (ACHN renal) of 3.29 µM, a GI50 (EKVX NSCLC) of 1550 nM and a TGI (EKVX NSCLC) of 3.05 µM. It also gave a GI50 (DU-145 prostate) of 1660 nM, a TGI (DU-145 prostate) of 3.17 µM and a GI50 (SNB-75 CNS) of 1620 nM. For the same compound, the TGI (SNB-75 CNS) was 3.07 µM, the GI50 (HS 578T breast) was 1650 nM and the TGI (HS 578T breast) was 3.65 µM. The GI50 (TK-10 renal) was 1750 nM, the TGI (TK-10 renal) was 3.22 µM and the GI50 (UACC-257 melanoma) was 1770 nM. The TGI (UACC-257 melanoma) was 3.24 µM, the GI50 (PC-3 prostate) was 1650 nM and the TGI (PC-3 prostate) was 3.1 µM. For the same compound, the GI50 (MDA-MB-231 breast) was 1840 nM, the TGI (MDA-MB-231 breast) was 3.32 µM and the GI50 (SF-539 CNS) was 1790 nM. For the same compound, the TGI (SF-539 CNS) was 3.26 µM, the GI50 (K-562 leukemia) was 325 nM and the TGI (K-562 leukemia) was 1060 nM. For the same compound, the GI50 (KM12 colon) was 1790 nM, the TGI (KM12 colon) was 3.37 µM and the GI50 (COLO 205 colon) was 1750 nM. For the same compound, the TGI (COLO 205 colon) was 3.38 µM, the GI50 (BT-549 breast) was 1660 nM and the TGI (BT-549 breast) was 3.2 µM. For the same compound, the GI50 (CCRF-CEM leukemia) was 1710 nM, the TGI (CCRF-CEM leukemia) was 3.65 µM and the GI50 (NCI-H522 lung) was 1860 nM. The TGI (NCI-H522 lung) was 3.5 µM, the GI50 (HCC-2998 colon) was 1770 nM and the TGI (HCC-2998 colon) was 3.24 µM. It also gave a GI50 (HOP-62 NSCLC) of 1780 nM, a TGI (HOP-62 NSCLC) of 3.24 µM and a GI50 (HL-60(TB) leukemia) of 1290 nM. For the same compound, the TGI (HL-60(TB) leukemia) was 2970 nM, the GI50 (UACC-62 melanoma) was 1850 nM and the TGI (UACC-62 melanoma) was 3.33 µM. For the same compound, the GI50 (OVCAR-3 ovarian) was 1960 nM, the TGI (OVCAR-3 ovarian) was 3.57 µM and the GI50 (SN12C renal) was 1740 nM. For the same compound, the TGI (SN12C renal) was 3.24 µM, the GI50 (NCI-H23 lung) was 1960 nM and the TGI (NCI-H23 lung) was 3.61 µM. For the same compound, the GI50 (T-47D breast) was 1930 nM, the TGI (T-47D breast) was 3.84 µM and the GI50 (OVCAR-8 ovarian) was 1860 nM. It also gave a TGI (OVCAR-8 ovarian) of 3.57 µM, a GI50 (SW-620 colon) of 1800 nM and a TGI (SW-620 colon) of 3.62 µM. It also gave a GI50 (RPMI-8226 leukemia) of 1770 nM, a TGI (RPMI-8226 leukemia) of 3.94 µM and a GI50 (A549 NSCLC) of 1730 nM. It also gave a TGI (A549 NSCLC) of 3.27 µM, a GI50 (SNB-19 CNS) of 1870 nM and a TGI (SNB-19 CNS) of 3.34 µM. The GI50 (SK-MEL-28 melanoma) was 1900 nM, the TGI (SK-MEL-28 melanoma) was 3.37 µM and the GI50 (NCI-H226 lung) was 1940 nM. It also gave a TGI (NCI-H226 lung) of 4.09 µM, a GI50 (OVCAR-5 ovarian) of 1730 nM and a TGI (OVCAR-5 ovarian) of 3.15 µM. It also gave a GI50 (LOX IMVI melanoma) of 1640 nM, a TGI (LOX IMVI melanoma) of 3.1 µM and a GI50 (HCT-116 colon) of 1610 nM. It also gave a TGI (HCT-116 colon) of 3.05 µM, a GI50 (HOP-92 NSCLC) of 1420 nM and a TGI (HOP-92 NSCLC) of 2810 nM. It also gave a GI50 (MCF7 breast) of 1530 nM, a TGI (MCF7 breast) of 3.2 µM and a GI50 (SK-OV-3 ovarian) of 1800 nM. For the same compound, the TGI (SK-OV-3 ovarian) was 3.2 µM, the GI50 (SK-MEL-2 melanoma) was 1890 nM and the TGI (SK-MEL-2 melanoma) was 3.44 µM. It also gave a GI50 (NCI/ADR-RES ovarian) of 2600 nM, a TGI (NCI/ADR-RES ovarian) of 6.59 µM and a GI50 (MOLT-4 leukemia) of 1700 nM. For the same compound, the TGI (MOLT-4 leukemia) was 3.58 µM, the GI50 (SK-MEL-5 melanoma) was 1720 nM and the TGI (SK-MEL-5 melanoma) was 3.16 µM. For the same compound, the GI50 (UO-31 renal) was 1600 nM, the TGI (UO-31 renal) was 2960 nM and the GI50 (MALME-3M melanoma) was 1860 nM. The TGI (MALME-3M melanoma) was 3.38 µM, the GI50 (786-0 renal) was 1640 nM and the TGI (786-0 renal) was 3.11 µM. The GI50 (RXF 393 renal) was 1280 nM, the TGI (RXF 393 renal) was 2590 nM and the GI50 (SR leukemia) was 1530 nM. It also gave a TGI (SR leukemia) of 3.63 µM, a GI50 (MDA-MB-435) of 1850 nM and a TGI (MDA-MB-435) of 3.46 µM. For the same compound, the GI50 (SF-295 CNS) was 1760 nM, the TGI (SF-295 CNS) was 3.23 µM and the GI50 (U251 CNS) was 1610 nM. It also gave a TGI (U251 CNS) of 3.01 µM, a GI50 (M14 melanoma) of 1810 nM and a TGI (M14 melanoma) of 3.32 µM. The GI50 (A498 renal) was 1440 nM, the TGI (A498 renal) was 2790 nM and the GI50 (IGROV1 ovarian) was 1920 nM. For the same compound, the TGI (IGROV1 ovarian) was 3.65 µM, the GI50 (HCT-15 colon) was 1650 nM and the TGI (HCT-15 colon) was 3.24 µM. The GI50 (SF-268 CNS) was 1750 nM and the TGI (SF-268 CNS) was 3.45 µM.
